Like-named read-outs stand apart in the source and are kept apart here.
Columns and labels:
[1] = test system: AR; design: method as in Kleinstreuer et al., 2017; settings: 2017, cited from earlier work; for Agonist reference: AR agonist reference class ref Kleinstreuer et al.; for Antagonist reference: AR antagonist reference class ref Kleinstreuer et al.
[2] = test system: AR2 cells (HepG2-AR2); assay: Alamar Blue (resazurin) post hoc cell viability / cytotoxicity assay in AR2 cells; settings: spid Viability, sheet antagonist_fits; for hill_tp (Hill model top): 0 where win_model is Constant
Protocol: For antagonist mode and cytotoxicity data, well-level normalized response (resp) was calculated as: resp=100 * RLU−bval/pval−bval where pval is the median RLU value of the MEC positive control wells (minimum four wells).

[3] = biological target: T1, human AR (Homo sapiens, UniProt P10275); assay: AR2 assay, agonist mode: ligand-dependent AR homodimerization (NanoBiT luciferase complementation) in stable HepG2-AR2 cells; assay type: cell-based; settings: sheet agonist_fits; for hill_tp: Hill model top (efficacy), 0 given where win_model is Constant; for max_med: maximum median response; for win_model: winning concentration-response model (Constant, Hill, Gain-Loss);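 for hill tp: Log2 fold change of luminescence over DMSO vehicle wells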;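 for max med: Log2 fold change of luminescence over DMSO vehicle wells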
T1 sequence (P10275 1-920) 1: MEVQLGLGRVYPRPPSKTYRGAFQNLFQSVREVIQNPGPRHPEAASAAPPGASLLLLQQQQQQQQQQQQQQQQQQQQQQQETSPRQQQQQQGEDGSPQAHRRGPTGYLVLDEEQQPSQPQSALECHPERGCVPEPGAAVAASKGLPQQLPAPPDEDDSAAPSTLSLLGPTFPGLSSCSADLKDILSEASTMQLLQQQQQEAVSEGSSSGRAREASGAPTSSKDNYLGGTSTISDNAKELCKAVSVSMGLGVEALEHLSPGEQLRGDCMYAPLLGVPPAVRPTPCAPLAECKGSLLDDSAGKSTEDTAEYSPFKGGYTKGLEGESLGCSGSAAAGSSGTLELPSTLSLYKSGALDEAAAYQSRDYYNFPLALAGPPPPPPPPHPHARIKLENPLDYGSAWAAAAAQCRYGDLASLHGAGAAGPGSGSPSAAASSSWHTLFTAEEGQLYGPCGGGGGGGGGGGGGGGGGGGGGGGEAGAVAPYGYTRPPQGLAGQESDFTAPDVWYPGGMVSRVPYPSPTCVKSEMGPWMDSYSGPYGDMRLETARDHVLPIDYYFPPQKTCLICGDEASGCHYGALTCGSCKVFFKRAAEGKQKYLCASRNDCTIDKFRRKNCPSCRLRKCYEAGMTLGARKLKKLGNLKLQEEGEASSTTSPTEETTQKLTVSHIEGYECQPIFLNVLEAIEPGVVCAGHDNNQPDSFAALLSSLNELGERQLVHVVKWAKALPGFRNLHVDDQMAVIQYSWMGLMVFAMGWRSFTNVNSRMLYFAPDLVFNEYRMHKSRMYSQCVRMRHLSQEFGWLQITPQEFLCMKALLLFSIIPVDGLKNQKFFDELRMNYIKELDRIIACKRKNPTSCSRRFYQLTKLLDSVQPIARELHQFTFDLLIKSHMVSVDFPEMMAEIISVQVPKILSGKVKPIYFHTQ
T1 sequence (P10275 1-920) 2: T1 sequence (P10275 1-920) 1

[4] = biological target: T1, human AR; assay: AR2 assay, antagonist mode: disruption of R1881 (10 nM)-induced AR homodimerization in HepG2-AR2 cells; assay type: cell-based; settings: spid AR_antagonist, sheet antagonist_fits; for hill_gw (Hill model slope) / hill_tp (Hill model top): 0 where win_model is Constant

| SMILES | Agonist reference [1] | Agonist reference ([1]; Supplementary Table S1) | max_med (maximum median response) [2] | hill_tp (Hill model top) [2] | Antagonist reference [1] | Antagonist reference ([1]; Supplementary Table S1) | hill_tp [3] | max_med [3] | win_model [3] | max_med (maximum median response) [4] | win_model (winning concentration-response model) [4] | hill_gw (Hill model slope) [4] | hill_tp (Hill model top) [4] |
| --- | --- | --- | --- | --- | --- | --- | --- | --- | --- | --- | --- | --- | --- |
| C#C[C@]1(O)CC[C@H]2[C@@H]3CCC4=CC(=O)CC[C@@H]4[C@H]3CC[C@@]21CC [Levonorgestrel] | Strong | Strong | 19.7477 | 15.1748 | – | – | – | – | – | – | – | – | – |
| CON(C)C(=O)Nc1ccc(Cl)c(Cl)c1 [Linuron] | – | – | 8.62 | 20.739 | Moderate | Moderate | – | – | – | – | – | – | – |
| CCOC(=O)CC(SP(=S)(OC)OC)C(=O)OCC (stereo not shown) [Malathion] | – | – | 9.605 | 0 | – | – | 0 | 0.05987 | Constant | 33.4262 | Hill | 0.997 | 41.649 |
| CNC(=O)ON=C(C)SC [Methomyl] | – | – | 19.3855 | 17.5917 | Inactive | – | – | – | – | – | – | – | – |
| COc1ccc(C(c2ccc(OC)cc2)C(Cl)(Cl)Cl)cc1 [Methoxychlor] | – | – | 4.672 | 0 | Weak | Weak | – | – | – | – | – | – | – |
| CC1(C)NC(=O)N(c2ccc([N+](=O)[O-])c(C(F)(F)F)c2)C1=O [Nilutamide] | – | Inactive | 8.678 | 5.9263 | – | Moderate | – | – | – | – | – | – | – |
| C#C[C@]1(O)CC[C@H]2[C@@H]3CCC4=CC(=O)CC[C@@H]4[C@H]3CC[C@@]21C [Norethindrone] | Strong | Strong | 2.971 | 0 | – | – | – | – | – | – | – | – | – |
| CNC(=O)O/N=C(\SC)C(=O)N(C)C [Oxamyl] | – | – | 14.6316 | 13.892 | – | – | 0 | 0.09886 | Constant | 4.35 | Constant | 0 | 0 |
| CCCN(CCOc1c(Cl)cc(Cl)cc1Cl)C(=O)n1ccnc1 [Prochloraz] | Inactive | – | 76.2192 | 81.7308 | Moderate | Moderate | – | – | – | – | – | – | – |
| CC(=O)S[C@@H]1CC2=CC(=O)CC[C@]2(C)[C@H]2CC[C@@]3(C)[C@@H](CC[C@@]34CCC(=O)O4)[C@H]12 [Spironolactone] | – | – | 26.4305 | – | Strong | Strong | – | – | – | – | – | – | – |
| CC/C(=C(\c1ccccc1)c1ccc(OCCN(C)C)cc1)c1ccccc1 [Tamoxifen] | Inactive | – | 41.7162 | 97.2082 | – | – | – | – | – | – | – | – | – |

Reference: publication PMC10112521, “High-throughput AR dimerization assay identifies androgen disrupting chemicals and metabolites” (Frontiers in Toxicology, 2023)
